From patent US20090234150A1, “Use of ppar-alpha agonists to treat skeletal muscle wasting disorders” (priority 2006, published 2009)

System: ischemic muscle necrosis
Settings: wild type mice, 0.5 g/kg/day by gavage for 10 days prior to femoral artery ligation
Source text: To assess the muscle protective effect of the PPAR-alpha agonist fenofibrate, wild type mice received fenofibrate (0.5 g/kg/day; Cayman Chemical, Ann Arbor, Mich., USA) by gavage, or vehicle alone for 10 days prior to femoral artery ligation. Two days after femoral artery ligation muscle necrosis was subsequently analyzed on histological sections of the crural muscles.
Limb ischemia was induced by high unilateral right or bilateral ligation of the femoral artery and vein, and of the cutaneous vessels branching from the caudal femoral artery, sparing the femoral nerve. Crural muscles were dissected and processed for histological analysis 2 d or 7 d after ligation.
The crural muscles were dissected, fixed in 4% PFA, dehydrated, embedded in paraffin, and sectioned at 10 μm thickness. Microscopic analysis was performed with a Zeiss Axioplan 2 imaging microscope, equipped with an Axiocam HrC camera and KS300 morphometry software (Zeiss). Capillary density, fiber size, and the cross-sectional area of viable and necrotic zones were quantified on eight entire sections (each 320 μm apart) of the crural muscles.

**Q.** With CC(C)OC(=O)C(C)(C)Oc1ccc(C(=O)c2ccc(Cl)cc2)cc1 [fenofibrate] as the molecule, how does the “prevention of ischemic muscle necrosis” value (analysed two days after ligation, versus vehicle) read?
**A.** 60%

**Q.** What about the “% necrotic area/total cross-sectional area” value (crural muscles two days after ligation, n=4, P=0.002 (vehicle 86.3±8.2%)) of the same molecule?
**A.** 34.3±7%
